Like-named read-outs stand apart in the source and are kept apart here.
Legend:
DENV (New Guinea C) = assay type: cell-based, Dengue virus; details: read-out: DENV EC50: effective concentration showing 50% inhibition of virus-induced CPE
ZIKV (MR766) = assay type: cell-based, Zika virus; details: read-out: ZIKV EC50
YFV (17D) = assay type: cell-based, Yellow Fever Virus; details: read-out: YFV EC50
Ebola (EBOV) virus [1] = assay type: cell-based; details: read-out: EC50 against EBOV
Ebola (EBOV) virus [2] = details: cited from earlier work
SARS = details: read-out: activity against SARS; cited from earlier work
ZIKV NS5-MTase = ZIKV NS5-MTase (Zika virus, UniProt A0A024B7W1); experiment: radioactive filter-binding 2'-O-MTase assay, ZIKV; assay type: biochemical; details: 50 µM compound
DENV NS5-MTase = molecular target: T1, DENV NS5-MTase (Dengue virus type 3, UniProt Q6YMS4); experiment: radioactive filter-binding 2'-O-MTase assay, DENV; assay type: biochemical, DENV-3; details: 50 µM compound
T1 sequence (Q6YMS4 2492-2753 limits assumed): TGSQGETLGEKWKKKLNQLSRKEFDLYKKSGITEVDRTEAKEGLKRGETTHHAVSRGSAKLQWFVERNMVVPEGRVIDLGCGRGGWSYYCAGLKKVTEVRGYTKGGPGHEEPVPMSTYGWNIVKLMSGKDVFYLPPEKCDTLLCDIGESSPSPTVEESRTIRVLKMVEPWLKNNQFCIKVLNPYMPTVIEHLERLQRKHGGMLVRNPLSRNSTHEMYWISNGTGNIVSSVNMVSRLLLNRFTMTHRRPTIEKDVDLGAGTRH

human N7 (RNMT) MTase = human N7 (RNMT) MTase (Homo sapiens, UniProt O43148); assay type: biochemical; details: 50 µM
[3] = preliminary minimum tolerated dose; assay type: in vivo

human N7 (RNMT) MTase, sequence (O43148 whole entry): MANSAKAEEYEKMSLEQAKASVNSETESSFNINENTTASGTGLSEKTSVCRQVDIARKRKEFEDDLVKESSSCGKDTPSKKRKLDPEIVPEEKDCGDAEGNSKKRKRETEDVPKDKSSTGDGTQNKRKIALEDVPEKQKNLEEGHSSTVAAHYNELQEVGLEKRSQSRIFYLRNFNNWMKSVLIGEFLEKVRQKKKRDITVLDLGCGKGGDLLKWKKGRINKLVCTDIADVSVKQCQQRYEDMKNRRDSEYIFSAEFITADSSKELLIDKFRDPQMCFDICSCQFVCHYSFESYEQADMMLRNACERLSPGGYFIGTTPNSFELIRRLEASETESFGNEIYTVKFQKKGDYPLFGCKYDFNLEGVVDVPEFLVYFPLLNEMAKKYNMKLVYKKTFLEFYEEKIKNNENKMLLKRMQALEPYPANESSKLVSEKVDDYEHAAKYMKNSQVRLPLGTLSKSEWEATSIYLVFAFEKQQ
ZIKV NS5-MTase, sequence (A0A024B7W1 2521-2785 limits assumed): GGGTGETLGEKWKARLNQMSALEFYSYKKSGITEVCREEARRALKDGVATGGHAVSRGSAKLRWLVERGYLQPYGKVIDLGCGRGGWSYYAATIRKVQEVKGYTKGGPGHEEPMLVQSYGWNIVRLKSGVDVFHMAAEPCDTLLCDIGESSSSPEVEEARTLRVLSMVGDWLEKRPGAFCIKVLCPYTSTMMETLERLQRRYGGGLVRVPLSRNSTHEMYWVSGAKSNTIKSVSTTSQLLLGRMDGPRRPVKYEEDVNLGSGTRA

Substance	EC50 (DENV (New Guinea C)) [µM]	EC50 (ZIKV (MR766)) [µM]	EC50 (YFV (17D)) [µM]	EC50 (Ebola (EBOV) virus [1]) [µM]	activity against Ebola (EBOV) virus (Ebola (EBOV) virus [2])	EC50 (SARS) [µM]	Percent inhibition of ZIKV MTase (ZIKV NS5-MTase)	Percent inhibition of DENV MTase (DENV NS5-MTase)	inhibition of human N7 MTase activity (human N7 (RNMT) MTase)	minimum tolerated dose (MTD) studies: no toxicity up to [3] [mgs/kg]	EC50 (Ebola (EBOV) virus [2]; read-out: EC50 against Ebola (EBOV) virus) [µM]
2-ethylbutyl ((2-((4-(2,4-dimethoxypyrimidin-5-yl)-1H-imidazol-1-yl)methoxy)ethoxy)-(phenoxy)-phosphoryl)alaninate [Compound 2-MG]	> 53	> 56	> 53								
2-((4–2,4-dimethoxypyrimidin-5-yl)-1H-imidazol-1-yl)methoxy) ethyl acetate [Compound 2-Ac]	19		> 58	8.2 ± 1.8							
2-ethylbutyl((2-((4-(2-amino-4-methoxypyrimidin-5-yl)-1H-imidazol-1-yl)methoxy)-ethoxy)-(phenoxy)phosphoryl)alaninate [Compound 1-MG]	> 57	> 31	> 55		active						
2-((4-(2,4-dimethoxypyrimidine-5-yl)-1H-imidazol-1-yl) methoxy)ethan-1-ol [Compound 2]	> 50	> 76	> 58								
2-((4-(2-amino-4-methoxypyrimidin-5-yl)-1H-imidazol-1-yl)methoxy)ethyl acetate [Compound 1-Ac]	6.1	> 100	> 57		active	11.9					
2-((4-(2-amino-4-methoxypyrimidin-5-yl)-1H-imidazol-1-yl) methoxy)ethan-1-ol [Compound 1]	0.057		0.37		active		did not exhibit a significant inhibitory effect	did not exhibit a significant inhibitory effect	did not exhibit a significant inhibitory effect	≥ 250	2.2 ± 0.3
